In one data set the target is T1, human GLP-1 receptor (Homo sapiens, UniProt P43220).
T1 construct: expressed in transfected cells; host or cells: BHK cells, clone FCW467-12A/KZ10-1 (parent line BHKTS13), further transfected with CRE luciferase
Briefly: In vitro potency (AlphaScreen cAMP, membranes). The data set is classed as biochemical. Here is the method: The purpose of this example is to test the activity, or potency, of the GLP-1 derivatives in vitro.
Purified plasma membranes from a stable transfected cell line, BHK467-12A (tk-ts13), expressing the human GLP-1 receptor were stimulated with the GLP-1 analogue or derivative in question, and the potency of cAMP production was measured using the AlphaScreen™ cAMP Assay Kit from Perkin Elmer Life Sciences. The basic principle of the AlphaScreen Assay is a competition between endogenous cAMP and exogenously added biotin-cAMP. The capture of cAMP is achieved by using a specific antibody conjugated to acceptor beads.
A stable transfected cell line and a high expressing clone were selected for screening. The cells were grown at 5% CO2 in DMEM, 5% FCS, 1% Pen/Strep (Penicillin/Streptomycin) and 0.5 mg/ml of the selection marker G418.
Cells at approximately 80% confluence were washed 2× with PBS and harvested with Versene (aqueous solution of the tetrasodium salt of ethylenediaminetetraacetic acid), centrifuged 5 min at 1000 rpm and the supernatant removed. The additional steps were all performed on ice. The cell pellet was homogenised by the Ultrathurax for 20-30 s in 10 ml of Buffer 1 (20 mM Na-HEPES, 10 mM EDTA, pH=7.4), centrifuged 15 min at 20,000 rpm and the pellet resuspended in 10 ml of Buffer 2 (20 mM Na-HEPES, 0.1 mM EDTA, pH=7.4). The suspension was homogenised for 20-30 s and centrifuged 15 min at 20,000 rpm. Suspension in Buffer 2, homogenisation and centrifugation was repeated once and the membranes were resuspended in Buffer 2. The protein concentration was determined and the membranes stored at −80° C. until use.
The assay was performed in flat-bottom 96-well plates (Costar cat. no:3693). The final volume per well was 50 μl.
AlphaScreen cAMP Assay Kit from Perkin Elmer Life Sciences (cat. No: 6760625M); containing Anti-cAMP Acceptor beads (10 U/μl), Streptavidin Donor beads (10 U/μl) and Biotinylated-cAMP (133 U/μl).
AlphaScreen Buffer, pH=7.4: 50 mM TRIS-HCl (Sigma, cat.no: T3253); 5 mM HEPES (Sigma, cat.no: H3375); 10 mM MgCl2, 6H2O (Merck, cat.no: 5833); 150 mM NaCl (Sigma, cat.no: S9625); 0.01% Tween (Merck, cat.no: 822184). The following was added to the AlphaScreen Buffer prior to use (final concentrations indicated): BSA (Sigma, cat. no. A7906): 0.1%; IBMX (Sigma, cat. no. 15879): 0.5 mM; ATP (Sigma, cat. no. A7699): 1 mM; GTP (Sigma, cat. no. G8877): 1 uM.
cAMP standard (dilution factor in assay=5): cAMP Solution: 5 μL of a 5 mM cAMP-stock+495 μL AlphaScreen Buffer.
Membranes were prepared from hGLP-1/BHK 467-12A cells with a concentration of 6 μg/well corresponding to 0.6 mg/ml (the amount of membranes used pr. well may vary)
“No membranes”: Acceptor Beads (15 μg/ml final) in AlphaScreen buffer
“6 μg/well membranes”: membranes+Acceptor Beads (15 μg/ml final) in AlphaScreen buffer
An aliquot (10 μl) of “No membranes” was added to the cAMP standard (per well in duplicate wells) and the positive and negative controls
An aliquot (10 μl) of “6 μg/well membranes” was added to GLP-1 and analogues (per well in duplicate or triplicate wells)
Pos. Control: 10 μl “no membranes”+10 μl AlphaScreen Buffer
Neg. Control: 10 μl “no membranes”+10 μl cAMP Stock Solution (50 μM)
As the beads are sensitive to direct light, any handling was in the dark (as dark as possible), or in green light. All dilutions were made on ice.
1. Make the AlphaScreen Buffer.
2. Dissolve and dilute the GLP-1/Analogues/cAMP standard in AlphaScreen Buffer.
3. Make the Donor Beads Solution by mixing streptavidin donor beads (2 units/well) and biotinylated cAMP (1.2 units/well) and incubate 20-30 min in the dark at room temperature
4. Add the cAMP/GLP-1/Analogues to the plate: 10 μl per well.
5. Prepare membrane/Acceptor Beads solution and add this to the plates: 10 μl per well.
6. Add the Donor Beads: 30 μl per well.
7. Wrap the plate in aluminum foil and incubate on the shaker for 3 hours (very slowly) at RT.
A general note: Bead proximity is the source of the signal in Alpha formats.

Data set [1] in a line: Pharmacokinetic (PK) study in minipig. Conditions: male, Göttingen, in vivo, iv.
Experimental: The purpose of this study is to determine the protraction in vivo of the GLP-1 derivatives after i.v. administration to minipigs, i.e. the prolongation of their time of action. This is done in a pharmacokinetic (PK) study, where the terminal half-life of the derivative in question is determined. By terminal half-life is generally meant the period of time it takes to halve a certain plasma concentration, measured after the initial distribution phase.
Study A: Male Göttingen minipigs were obtained from Ellegaard Göttingen Minipigs (Dalmose, Denmark) approximately 7-14 months of age and weighing from approximately 16-35 kg were used in the studies. The minipigs were housed individually and fed restrictedly once or twice daily with SDS minipig diet (Special Diets Services, Essex, UK). After at least 2 weeks of acclimatisation two permanent central venous catheters were implanted in vena cava caudalis or cranialis in each animal. The animals were allowed 1 week recovery after the surgery, and were then used for repeated pharmacokinetic studies with a suitable wash-out period between successive GLP-1 derivative dosings.
The animals were fasted for approximately 18 h before dosing and from 0 to 4 h after dosing, but had ad libitum access to water during the whole period.
The GLP-1 derivatives were dissolved in 50 mM sodium phosphate, 145 mM sodium chloride, 0.05% tween 80, pH 7.4 to a concentration of usually from 20-60 nmol/ml. […] Blood samples (for example 0.8 ml) were collected in EDTA buffer (8 mM) and then centrifuged at 4° C. and 1942 G for 10 minutes.
Study B: Male Göttingen minipigs were obtained from Ellegaard Göttingen Minipigs (Dalmose, Denmark) approximately 5 months of age and weighing from approximately 9 kg were used in the studies. The minipigs were housed in pens with straw as bedding, six together in each pen and fed restrictedly once or twice daily with Altromin 9023 minipig diet (Chr. Petersen A/S, DK-4100 Ringsted) or Standard SMP(E) minipig diet (Special Diet Services (SDS), UK). The pigs were used for repeated pharmacokinetic studies with a suitable wash-out period between successive GLP-1 derivative dosings.
The GLP-1 derivatives were dissolved in 50 mM sodium phosphate, 145 mM sodium chloride, 0.05% tween 80, pH 7.4 to a concentration of usually from 20-60 nmol/ml. Intravenous injections (the volume corresponding to usually 2 nmol/kg, for example 0.1 ml/kg) of the compounds were given as intravenous injections via a Venflon inserted in an ear vein, while they are placed unanaesthetised in a sling. The dose volume was 0.1 ml/kg, and blood was sampled at predefined time points for up till 17 days post dosing (samples was taken with syringe from a jugular vein).
Individual plasma concentration-time profiles were analyzed by a non-compartmental model in Phoenix WinNonLin ver. […] (Pharsight Inc., Mountain View, Calif., USA), and the resulting terminal half-lives (harmonic mean) determined.
Data set [2] in a line: Pharmacokinetic (PK) study in rat. To be noted: male, Sprague Dawley, in vivo, iv, 6 nmol/kg.

Here are results for 3 compounds from patent US10604554B2, “Double-acylated GLP-1 derivatives” (Novo Nordisk A/S, priority 2012, dated 2020).

Broadly, the EC50 is the concentration needed to bring the measured effect to its halfway point. A lower EC50 goes with an effect from little substance. In general, half-life refers to how long it takes for the measured level to halve. Low values mean rapid decline, high ones slow decline.

T1 sequence (P43220 24-463): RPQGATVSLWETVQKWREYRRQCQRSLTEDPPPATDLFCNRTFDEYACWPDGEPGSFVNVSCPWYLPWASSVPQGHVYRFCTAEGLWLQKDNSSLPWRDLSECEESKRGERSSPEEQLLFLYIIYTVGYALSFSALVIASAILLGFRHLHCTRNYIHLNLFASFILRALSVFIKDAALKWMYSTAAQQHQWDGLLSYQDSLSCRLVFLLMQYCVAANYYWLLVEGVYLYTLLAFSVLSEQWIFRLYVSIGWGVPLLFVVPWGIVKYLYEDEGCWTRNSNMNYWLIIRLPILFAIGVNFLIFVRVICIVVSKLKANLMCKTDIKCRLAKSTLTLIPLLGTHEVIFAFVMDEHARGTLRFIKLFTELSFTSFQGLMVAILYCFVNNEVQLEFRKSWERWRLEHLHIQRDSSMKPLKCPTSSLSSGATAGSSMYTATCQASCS

As to `CC[C@H](C)[C@H](NC(=O)[C@H](Cc1ccccc1)NC(=O)[C@H](CCC(=O)O)NC(=O)[C@H](CCCCNC(=O)[C@@H](N)CCCCNC(=O)COCCOCCNC(=O)COCCOCCNC(=O)CC[C@H](NC(=O)CCCCCCCCCCCOc1ccc(C(=O)O)cc1)C(=O)O)NC(=O)[C@H](C)NC(=O)[C@H](C)NC(=O)[C@H](CCC(N)=O)NC(=O)CNC(=O)[C@H](CCC(=O)O)NC(=O)[C@H](CC(C)C)NC(=O)[C@H](Cc1ccc(O)cc1)NC(=O)[C@H](CO)NC(=O)[C@H](CO)NC(=O)[C@@H](NC(=O)[C@H](CC(=O)O)NC(=O)[C@H](CO)NC(=O)[C@@H](NC(=O)[C@H](Cc1ccccc1)NC(=O)[C@@H](NC(=O)CNC(=O)[C@H](CCC(=O)O)NC(=O)C(C)(C)NC(=O)[C@@H](N)Cc1c[nH]cn1)[C@@H](C)O)[C@@H](C)O)C(C)C)C(=O)N[C@@H](C)C(=O)N[C@@H](Cc1c[nH]c2ccccc12)C(=O)N[C@@H](CC(C)C)C(=O)N[C@H](C(=O)N[C@@H](CCCNC(=N)N)C(=O)NCC(=O)N[C@@H](CCCNC(=N)N)C(=O)N[C@@H](CCCCNC(=O)[C@@H](N)CCCCNC(=O)COCCOCCNC(=O)COCCOCCNC(=O)CC[C@H](NC(=O)CCCCCCCCCCCOc1ccc(C(=O)O)cc1)C(=O)O)C(=O)O)C(C)C` [Example 14, N^ε26-[(2S)-2-amino-6-[[2-[2-[2-[[2-[2-[2-[[(4S)-4-carboxy-4-[12-(4-carboxyphenoxy)dodecanoylamino]butanoyl]amino]ethoxy]ethoxy]acetyl]amino]ethoxy]ethoxy]acetyl]amino]hexanoyl], N^ε37-[(2S)-2-amino-6-[[2-[2-[2-[[2-[2-[2-[[(4S)-4-carboxy-4-[12-(4-carboxyphenoxy)dodecanoylamino]butanoyl]amino]ethoxy]ethoxy]acetyl]amino]ethoxy]ethoxy]acetyl]amino]hexanoyl]-[Aib^8,Arg^34, Lys^37]-GLP-1-(7-37)-peptide], a half-maximal effect at human GLP-1 receptor (EC50) was put at 0.28 nM. Moreover, the half-life is 3.67 days in data set [1] and 1140 min in data set [2].
`CC[C@H](C)[C@H](NC(=O)[C@H](Cc1ccccc1)NC(=O)[C@H](CCC(=O)O)NC(=O)[C@H](CCCCNC(=O)[C@@H](N)CCCCNC(=O)COCCOCCNC(=O)CC[C@H](NC(=O)CC[C@H](NC(=O)CCCCCCCCCCCOc1ccc(C(=O)O)cc1)C(=O)O)C(=O)O)NC(=O)[C@H](C)NC(=O)[C@H](C)NC(=O)[C@H](CCC(N)=O)NC(=O)CNC(=O)[C@H](CCC(=O)O)NC(=O)[C@H](CC(C)C)NC(=O)[C@H](Cc1ccc(O)cc1)NC(=O)[C@H](CO)NC(=O)[C@H](CO)NC(=O)[C@@H](NC(=O)[C@H](CC(=O)O)NC(=O)[C@H](CO)NC(=O)[C@@H](NC(=O)[C@H](Cc1ccccc1)NC(=O)[C@@H](NC(=O)CNC(=O)[C@H](CCC(=O)O)NC(=O)C(C)(C)NC(=O)[C@@H](N)Cc1c[nH]cn1)[C@@H](C)O)[C@@H](C)O)C(C)C)C(=O)N[C@@H](C)C(=O)N[C@@H](Cc1c[nH]c2ccccc12)C(=O)N[C@@H](CC(C)C)C(=O)N[C@H](C(=O)N[C@@H](CCCNC(=N)N)C(=O)NCC(=O)N[C@@H](CCCNC(=N)N)C(=O)N[C@@H](CCCCNC(=O)[C@@H](N)CCCCNC(=O)COCCOCCNC(=O)CC[C@H](NC(=O)CC[C@H](NC(=O)CCCCCCCCCCCOc1ccc(C(=O)O)cc1)C(=O)O)C(=O)O)C(=O)O)C(C)C` [Example 15, N^ε26-[(2S)-2-amino-6-[[2-[2-[2-[[(4S)-4-carboxy-4-[[(4S)-4-carboxy-4-[12-(4-carboxyphenoxy)dodecanoylamino]butanoyl]amino]butanoyl]amino]ethoxy]ethoxy]acetyl]amino]hexanoyl], N^ε37-[(2S)-2-amino-6-[[2-[2-[2-[[(4S)-4-carboxy-4-[[(4S)-4-carboxy-4-[12-(4-carboxyphenoxy)dodecanoylamino]butanoyl]amino]butanoyl]amino]ethoxy]ethoxy]acetyl]amino]hexanoyl]-[Aib^8,Arg^34,Lys^37]-GLP-1-(7-37)-peptide] came in with an EC50 at human GLP-1 receptor of 0.155 nM. The same compound gave a half-life in data set [2] of 1200 min.
With `CC[C@H](C)[C@H](NC(=O)[C@H](Cc1ccccc1)NC(=O)[C@H](CCC(=O)O)NC(=O)[C@H](CCCCNC(=O)[C@@H](N)CCCCNC(=O)CC[C@H](NC(=O)CC[C@H](NC(=O)CC[C@H](NC(=O)CCCCCCCCCCCOc1ccc(C(=O)O)cc1)C(=O)O)C(=O)O)C(=O)O)NC(=O)[C@H](C)NC(=O)[C@H](C)NC(=O)[C@H](CCC(N)=O)NC(=O)CNC(=O)[C@H](CCC(=O)O)NC(=O)[C@H](CC(C)C)NC(=O)[C@H](Cc1ccc(O)cc1)NC(=O)[C@H](CO)NC(=O)[C@H](CO)NC(=O)[C@@H](NC(=O)[C@H](CC(=O)O)NC(=O)[C@H](CO)NC(=O)[C@@H](NC(=O)[C@H](Cc1ccccc1)NC(=O)[C@@H](NC(=O)CNC(=O)[C@H](CCC(=O)O)NC(=O)C(C)(C)NC(=O)[C@@H](N)Cc1c[nH]cn1)[C@@H](C)O)[C@@H](C)O)C(C)C)C(=O)N[C@@H](C)C(=O)N[C@@H](Cc1c[nH]c2ccccc12)C(=O)N[C@@H](CC(C)C)C(=O)N[C@H](C(=O)N[C@@H](CCCNC(=N)N)C(=O)NCC(=O)N[C@@H](CCCNC(=N)N)C(=O)N[C@@H](CCCCNC(=O)[C@@H](N)CCCCNC(=O)CC[C@H](NC(=O)CC[C@H](NC(=O)CC[C@H](NC(=O)CCCCCCCCCCCOc1ccc(C(=O)O)cc1)C(=O)O)C(=O)O)C(=O)O)C(=O)O)C(C)C` [Example 17, N^ε26-[(2S)-2-amino-6-[[(4S)-4-carboxy-4-[[(4S)-4-carboxy-4-[[(4S)-4-carboxy-4-[12-(4-carboxyphenoxy)dodecanoylamino]butanoyl]amino]butanoyl]amino]butanoyl]amino]hexanoyl], N^ε37-[(2S)-2-amino-6-[[(4S)-4-carboxy-4-[[(4S)-4-carboxy-4-[[(4S)-4-carboxy-4-[12-(4-carboxyphenoxy)dodecanoylamino]butanoyl]amino]butanoyl]amino]butanoyl]amino]hexanoyl]-[Aib^8,Arg^34,Lys^37]-GLP-1-(7-37)-peptide], the EC50 at human GLP-1 receptor was determined as 0.286 nM. Moreover, the half-life in data set [1] is 2.96 days; in data set [2], 1440 min.
